In assay [1] the test system is KURAMOCHI
The assay can be described thus: drug sensitivity score (DSS2) on cancer cell count; higher = more sensitive; extreme values may be limits of the assay. To be noted: 72 h. In outline:
(§1)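 Ovarian cancer cells were cultured either alone or directly mixed 1:1 with lung or skin fibroblasts and plated onto 384-well plates acoustically pre-spotted with 528 approved and investigational compounds at 5 concentrations for 72 h of treatment. After fixation, cells were immunostained for CK8/18 with Hoechst and imaged at 10× across 4 fields to count cancer cells. Responses were fitted with 4-parameter logistic curves, and from these fits a drug sensitivity score was derived in Breeze, with screen quality assessed by Z'.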

The test system of assay [2] is OVCAR8. The assay is described as above. To be noted: 72 h. In outline: as §1
[3] abbreviates: co-cultured fibroblast: BJHTERT.
Setting [4] is: co-cultured fibroblast: none (monoculture).

`COc1cc(Br)c(Nc2nc(-c3c(C)nc4ncccn34)cs2)c(Br)c1` [PTC-209]: the drug sensitivity score in assay [1] (setting [3]) amounted to 2.4 DSS; in assay [1] (co-cultured fibroblast: WI38) it was 3.6 DSS; in assay [1] (setting [4]) it was 7.9 DSS; in assay [2] (setting [3]), 9.1 DSS; in assay [2] (co-cultured fibroblast: WI38) it was 3.1 DSS; in assay [2] (setting [4]) it was 6.9 DSS.

On to `CN[C@@H](C)C(=O)N[C@H](C(=O)N1CCC[C@H]1c1nc(C(=O)c2ccc(F)cc2)cs1)C1CCCCC1` [NVP-LCL161], for which the drug sensitivity score is 4 DSS in assay [1] (setting [3]); 1.9 DSS in assay [1] (co-cultured fibroblast: WI38); 2.5 DSS in assay [1] (setting [4]); 34.7 DSS in assay [2] (setting [3]); 27.7 DSS in assay [2] (co-cultured fibroblast: WI38); 23.2 DSS in assay [2] (setting [4]).

For `O=S(=O)(c1cccc2c(O)nccc12)N1CCCNCC1` [Hydroxyfasudil], the drug sensitivity score in assay [1] (setting [3]) was determined as 0 DSS; in assay [1] (co-cultured fibroblast: WI38) it was 1 DSS; in assay [1] (setting [4]), 2 DSS; in assay [2] (setting [3]) it was 0 DSS; in assay [2] (co-cultured fibroblast: WI38) it was 1.2 DSS; in assay [2] (setting [4]) it was 0 DSS.

`O=C(O)c1ccc(-c2c[nH]c3ncc(-c4ccccc4)cc23)cc1C1CCCC1`: the drug sensitivity score in assay [1] (setting [3]) was 6.8 DSS; in assay [1] (co-cultured fibroblast: WI38) it was 7.3 DSS; in assay [1] (setting [4]), 7.1 DSS; in assay [2] (setting [3]), 2 DSS; in assay [2] (co-cultured fibroblast: WI38) it was 4.8 DSS; in assay [2] (setting [4]) it was 8.1 DSS.

On to `FC(F)(F)c1ccc(/C=C/c2nc(COc3ccc(CCCCn4ccnn4)cc3)co2)cc1` [Mubritinib], for which the drug sensitivity score in assay [1] (setting [3]) turned out to be 5.6 DSS; in assay [1] (co-cultured fibroblast: WI38), 0 DSS; in assay [1] (setting [4]), 0 DSS; in assay [2] (setting [3]), 16.9 DSS; in assay [2] (co-cultured fibroblast: WI38), 0 DSS; in assay [2] (setting [4]), 5.5 DSS.

As to `CCN(CC)CCCC(C)Nc1ccnc2cc(Cl)ccc12` (stereo not given) [Chloroquine], the drug sensitivity score in assay [2] (setting [3]) amounted to 12.8 DSS; in assay [2] (co-cultured fibroblast: WI38) it was 6.4 DSS; in assay [2] (setting [4]), 6.4 DSS.

As to `O=C(Nc1cccc(Nc2ncc(Br)c(NCCc3cnc[nH]3)n2)c1)N1CCCC1` [BX-912], the drug sensitivity score came out at 10.4 DSS in assay [1] (setting [3]); 9.6 DSS in assay [1] (co-cultured fibroblast: WI38); 8.7 DSS in assay [1] (setting [4]); 9.1 DSS in assay [2] (setting [3]); 7.8 DSS in assay [2] (co-cultured fibroblast: WI38); 7.3 DSS in assay [2] (setting [4]).

Regarding `CCc1c(C(=O)C(N)=O)c2c(OCC(=O)O)cccc2n1Cc1ccccc1` [Varespladib], the drug sensitivity score was 0 DSS in assay [1] (setting [3]); 0 DSS in assay [1] (co-cultured fibroblast: WI38); 0 DSS in assay [1] (setting [4]); 0 DSS in assay [2] (setting [3]); 0 DSS in assay [2] (co-cultured fibroblast: WI38); 3.4 DSS in assay [2] (setting [4]).

Consider `Cc1nc(=O)c2cc(CN(C)c3ccc(C(=O)N[C@@H](CCC(=O)O)C(=O)O)s3)ccc2[nH]1` [Raltitrexed], for which the drug sensitivity score is 11.2 DSS in assay [1] (setting [3]); 16.8 DSS in assay [1] (co-cultured fibroblast: WI38); 10.4 DSS in assay [1] (setting [4]); 16.4 DSS in assay [2] (setting [3]); 18.3 DSS in assay [2] (co-cultured fibroblast: WI38); 15.9 DSS in assay [2] (setting [4]).

Consider `C=CC(=O)Nc1cc2c(Nc3ccc(F)c(Cl)c3)ncnc2cc1OCCCN1CCOCC1` [Canertinib], for which the drug sensitivity score in assay [1] (setting [3]) was found to be 9.4 DSS; in assay [1] (co-cultured fibroblast: WI38), 9.2 DSS; in assay [1] (setting [4]) it was 24.2 DSS; in assay [2] (setting [3]), 9.6 DSS; in assay [2] (co-cultured fibroblast: WI38) it was 8.3 DSS; in assay [2] (setting [4]), 9.4 DSS.

Regarding `Cc1cc2c(F)c(Oc3ncnn4cc(OC[C@@H](C)O)c(C)c34)ccc2[nH]1` [Brivanib], the drug sensitivity score in assay [1] (setting [3]), in assay [1] (co-cultured fibroblast: WI38), in assay [1] (setting [4]), in assay [2] (setting [3]), in assay [2] (co-cultured fibroblast: WI38) and in assay [2] (setting [4]) was 0 DSS each time.

Take `CO[C@H]1C[C@@H]2CC[C@@H](C)[C@@](O)(O2)C(=O)C(=O)N2CCCC[C@H]2C(=O)O[C@H]([C@H](C)C[C@@H]2CC[C@@H](OC(=O)C(C)(CO)CO)[C@H](OC)C2)CC(=O)[C@H](C)/C=C(\C)[C@@H](O)[C@@H](OC)C(=O)[C@H](C)C[C@H](C)/C=C/C=C/C=C/1C` [Temsirolimus]: the drug sensitivity score in assay [1] (setting [3]) was found to be 16.8 DSS; in assay [1] (co-cultured fibroblast: WI38) it was 14.2 DSS; in assay [1] (setting [4]), 8.6 DSS; in assay [2] (setting [3]), 8.8 DSS; in assay [2] (co-cultured fibroblast: WI38), 0 DSS; in assay [2] (setting [4]) it was 11 DSS.

For the molecule `C/C(=C\c1csc(C)n1)[C@@H]1C[C@@H]2O[C@]2(C)CCC[C@H](C)[C@H](O)[C@@H](C)C(=O)C(C)(C)[C@@H](O)CC(=O)N1` [Ixabepilone], the drug sensitivity score in assay [1] (setting [3]) worked out at 4.9 DSS; in assay [1] (co-cultured fibroblast: WI38), 4.6 DSS; in assay [1] (setting [4]), 0.8 DSS; in assay [2] (setting [3]), 5.8 DSS; in assay [2] (co-cultured fibroblast: WI38), 5.6 DSS; in assay [2] (setting [4]), 3.6 DSS.
